Data: PubChem BioAssay AID330 (DTP/NCI, 2004)
Where “and” joins values, the source holds several entries; their conditions need not be identical. Equal entries are not always repeated. Toxic doses and inconclusive results are not listed.

Tested on: P388 leukemia ip, CD2F1 mice, survival T/C
Test: NCI In Vivo Anticancer Drug Screen. Data for tumor model P388 Leukemia (intraperitoneal) in CD2F1 (CDF1) mice
Conditions: endpoint: median survival time, higher = longer survival
Procedure, shortened: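 Mice carrying the transplanted tumor received test compound or vehicle. Survival was recorded in each group, and the value is the treated-group measurement divided by that of the vehicle-treated control group.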

[1] = dose: 100.0 mg/kg/injection, schedule: Q01DX009 (ip), vehicle: saline
[2] = dose: 200.0 mg/kg/injection, schedule: Q01DX009 (ip), vehicle: saline
[3] = dose: 50.0 mg/kg/injection, schedule: Q01DX009 (ip), vehicle: saline
[4] = dose: 50.0 mg/kg/injection, schedule: Q01DX005 (ip), vehicle: Klucel (hydroxypropylcellulose) (HPC)
[5] = dose: 100.0 mg/kg/injection, schedule: Q01DX005 (ip), vehicle: Klucel (hydroxypropylcellulose) (HPC)
[6] = dose: 200.0 mg/kg/injection, schedule: Q01DX005 (ip), vehicle: Klucel (hydroxypropylcellulose) (HPC)

c1ccc2[nH]c(CN(CCN(Cc3nc4ccccc4[nH]3)Cc3nc4ccccc4[nH]3)Cc3nc4ccccc4[nH]3)nc2c1
T/C (dose: 1.56 mg/kg/injection, schedule: Q01DX005 (ip), vehicle: DMSO): 104 % of control | T/C (dose: 3.12 mg/kg/injection, schedule: Q01DX005 (ip), vehicle: DMSO): 106 % of control | T/C (dose: 6.25 mg/kg/injection, schedule: Q01DX005 (ip), vehicle: DMSO): 105 % of control | T/C (dose: 12.5 mg/kg/injection, schedule: Q01DX005 (ip), vehicle: DMSO): 107 % of control | T/C (dose: 25.0 mg/kg/injection, schedule: Q01DX005 (ip), vehicle: DMSO): 108 % of control

COC(=O)CCC#N
T/C [1]: 97 % of control | T/C [2]: 109 % of control | T/C (dose: 400.0 mg/kg/injection, schedule: Q01DX009 (ip), vehicle: saline): 107 % of control

CN1C(=O)C2C=CC1c1ccccc12 (stereo not drawn)
T/C (dose: 100.0 mg/kg/injection, schedule: Q04DX003 (ip), vehicle: saline): 104 % of control | T/C (dose: 200.0 mg/kg/injection, schedule: Q04DX003 (ip), vehicle: saline): 106 % of control | T/C (dose: 400.0 mg/kg/injection, schedule: Q04DX003 (ip), vehicle: saline): 99 % of control

CCN(CC)c1ccc(/C=C(\C#N)C(N)=S)cc1
T/C [3]: 89 % of control | T/C [1]: 101 % of control | T/C [2]: 105 % of control

CCOC(=O)C1=C(C)O/C(=C/c2cccc(Cl)c2)C1=O
T/C (dose: 50.0 mg/kg/injection, schedule: Q01DX005 (ip), vehicle: saline with Tween-80): 117 % of control and 119 % of control | T/C (dose: 100.0 mg/kg/injection, schedule: Q01DX005 (ip), vehicle: saline with Tween-80): 121 % of control and 123 % of control | T/C (dose: 200.0 mg/kg/injection, schedule: Q01DX005 (ip), vehicle: saline with Tween-80): 113 % of control

CC(C)CC(C(=O)O)N(C)C(=O)OC(C)(C)C (stereo not drawn)
T/C [4]: 101 % of control | T/C [5]: 93 % of control | T/C [6]: 99 % of control

CCN(CC)CC(C)Nc1ccc([N+](=O)[O-])c2sc3ccccc3c(=O)c12 (stereo not drawn)
T/C (dose: 6.25 mg/kg/injection, schedule: Q01DX009 (ip), vehicle: saline): 113 % of control | T/C (dose: 12.5 mg/kg/injection, schedule: Q04DX003 (ip), vehicle: saline with Tween-80): 115 % of control | T/C (dose: 25.0 mg/kg/injection, schedule: Q04DX003 (ip), vehicle: saline with Tween-80): 120 % of control | T/C (dose: 50.0 mg/kg/injection, schedule: Q01DX009 (ip), vehicle: saline with Tween-80): 172 % of control | T/C [3]: 186 % of control | T/C (dose: 132.0 mg/kg/injection, schedule: Q04DX003 (ip), vehicle: saline with Tween-80): 163 % of control | T/C (dose: 200.0 mg/kg/injection, schedule: Q04DX003 (ip), vehicle: saline with Tween-80): 154 % of control

C[Si](C)(C)N1[Si](C)(C)N[Si](C)(C)N([Si](C)(C)F)[Si]1(C)C
T/C [4]: 113 % of control | T/C [5]: 105 % of control | T/C [6]: 104 % of control

CC(C)OP(=O)(OC(C)C)c1ccncc1
T/C (dose: 100.0 mg/kg/injection, schedule: Q01DX001 (ip), vehicle: saline): 99 % of control | T/C (dose: 200.0 mg/kg/injection, schedule: Q01DX001 (ip), vehicle: saline): 96 % of control | T/C (dose: 400.0 mg/kg/injection, schedule: Q01DX001 (ip), vehicle: saline): 101 % of control

COc1ccc(OC(=O)Nc2cc(Cl)c(OC)cc2OC)c(Cl)c1
T/C (dose: 50.0 mg/kg/injection, schedule: Q01DX009 (ip), vehicle: saline + alcohol): 98 % of control | T/C (dose: 100.0 mg/kg/injection, schedule: Q01DX009 (ip), vehicle: saline + alcohol): 105 % of control | T/C (dose: 200.0 mg/kg/injection, schedule: Q01DX009 (ip), vehicle: saline + alcohol): 96 % of control

CCOC(=O)c1c[nH]c2cc3ccccc3cc2c1=O
T/C [3]: 91 % of control | T/C [1]: 107 % of control | T/C [2]: 117 % of control

O=C(NC12OC3CC(CC(C3)O1)O2)NC12OC3CC(CC(C3)O1)O2
T/C (dose: 100.0 mg/kg/injection, schedule: Q01DX001 (ip), vehicle: saline with Tween-80): 100 % of control | T/C (dose: 200.0 mg/kg/injection, schedule: Q01DX001 (ip), vehicle: saline with Tween-80): 100 % of control | T/C (dose: 400.0 mg/kg/injection, schedule: Q01DX001 (ip), vehicle: saline with Tween-80): 111 % of control

CC(=O)Oc1ccc(/C(C)=N/NC(=O)C(C)SC(C)C(=O)N/N=C(\C)c2ccc(OC(C)=O)cc2)cc1 (stereo not drawn)
T/C [4]: 108 % of control | T/C [5]: 105 % of control | T/C [6]: 106 % of control

O=c1c2cc3ccccc3n2c(=O)c2cc3ccccc3n12
T/C (dose: 50.0 mg/kg/injection, schedule: Q01DX009 (ip), vehicle: Klucel (hydroxypropylcellulose) (HPC)): 87 % of control | T/C (dose: 100.0 mg/kg/injection, schedule: Q01DX009 (ip), vehicle: Klucel (hydroxypropylcellulose) (HPC)): 91 % of control | T/C (dose: 200.0 mg/kg/injection, schedule: Q01DX009 (ip), vehicle: Klucel (hydroxypropylcellulose) (HPC)): 92 % of control
